Columns and labels:
[1] = system: alpha1-adrenergic; assay: Amyelated rats, alpha1-adrenergic component (C20 ratio with prazosin); type: in vivo, Sprague Dawley rats; details: pretreated with prazosin
Excerpt: (§1) Male Sprague Dawley rats (300-400 g) are anesthetized with ether. The trachea is cannulated, the spinal column is destroyed using a stainless-steel rod and the animal is 1. 5 immediately placed under artificial respiration. The vagus nerves are dissected. The carotid arteries are ligatured and a catheter is placed in one and serves to record the arterial pressure. Three other catheters are placed in the jugular veins and in the vein of the penis and serve for the injections. The temperature of the animals is maintained at 36° C. The animal is pretreated by an injection of tertatolol […]. The animal is also pretreated 10 minutes later with prazosin ([…]) or yohimbine (1 mg/kg) when it is desired to determine the alpha1 - or alpha2-adrenergic properties of the product. Ten minutes later, increasing cumulative doses of product are injected every 20 seconds. The variations in arterial pressure are detected using a Statham P23XL pressure cell and are recorded. The pressure values are expressed in mmHg. This experiment makes it possible to calculate the concentration which increases the pressure by 20 mmHg (C20) by non-linear regression according to the mass action law model of Michaelis and Menten as described above. The maximum effect obtained is subsequently convened to a percentage relative to the maximum effect induced by phenylephrine. The alpha1 - or alpha2-adrenergic components of the product are evaluated using the C20 ratio obtained in the presence of prazosin or yohimbine on the values obtained in the absence of these antagonists. In amyelated rats, the products of the invention produce hypertensions which are sensitive to prazosin and to yohimbine.

[2] = system: dog femoral arteries; assay: Contraction of isolated dog femoral arteries; details: Canis lupus familiaris; for EC50: dog femoral artery rings, cumulative doses; for Emax: maximum contraction relative to 100 mM KCl, dog femoral artery, read-out: ARTERY Max
Experimental: (§2) The technique used is based on that described by Fowler et al. (J. Pharmacol. Exp. Ther., 229, 712-718, 1984). Male or female mongrel dogs of approximately 15-25 kg were used as organ sources. The animals are anesthetized with pentobarbital (30 mg/kg intravenously). The legs are incized and the blood vessels removed. They are placed in Krebs-Ringer liquid (118 mM NaCl; 25 mM NaHCO3; 10 mM Glucose; 4.7 mM KCl; 1.25 mM CaCl2; 1.19 mM MgSO4; 1.14 mM KH2 PO4) at room temperature and under a sparge of carbogen (95% O2, 5% CO2). These blood vessels are then carefully freed of their fat and then cut into rings 2 mm wide and mounted under a base tension of 4 g (femoral arteries) or 1 g (saphena veins) in tanks thermostated at 37° C. containing Krebs-Ringer liquid and constantly sparged with carbogen. A lower hook constitutes the fixed point, whereas the upper hook is connected to an isometric force sensor. The variations in tension are digitized, stored on disk and processed by an information technology system. After mounting, the organs are left to rest for 90 minutes, with rinses being carried out every 30 min. After readjustment of the base tension, a contraction is induced by a single dose of KCl (100 mM). After stabilization, washing and returning to the base line, a contraction is provoqued by a single dose of phenylephrine (submaximal concentration) in order to regulate the following contractions. After washing and returning to the baseline, an effect/concentration curve is produced by addition of cumulative doses of agonist (the space between the doses is a semi-log). This experiment makes it possible to calculate the 50% effective concentration (EC50) in the following way: the tension values are first of all converted to percentages relative to the maximum effect induced by 100 mM of KCl. This EC50 is determined by non-linear regression by the SIMPLEX method (M. S. Caceci, Byte, 340-362, 1984), calculated according to the mass action law model of L. Michaelis and M. L. Menten (Biochem. Zeitschrift, 49, 333-369, 1913).
(§3) E=(Emax*C^n)(EC^n +C^n) with E=effect; Emax=maximum effect; C=concentration; EC=EC50; n=Hill number
(§4) The products of the invention contract dog arteries and veins. The maximum for these contractions approaches that obtained with KCl.

[3] = system: alpha2-adrenergic; assay: Amyelated rats, alpha2-adrenergic component (C20 ratio with yohimbine); type: in vivo, Sprague Dawley rats; details: pretreated with yohimbine (1 mg/kg)
Excerpt: as §1

[4] = system: saphena veins; assay: Contraction of isolated dog saphena veins; details: Canis lupus familiaris; for EC50: dog saphena vein rings, cumulative doses; for Emax: maximum contraction relative to 100 mM KCl, dog saphena vein, read-out: VEIN Max
Experimental: as §2, §3, §4

[5] = system: arterial pressure in amyelated rats; assay: In vivo study in amyelated rats, arterial pressure; design: species or system Sprague Dawley rats; details: Rattus norvegicus, iv, tertatolol pretreated, no prazosin or yohimbine, read-out: C20 Control (concentration which increases the pressure by 20 mmHg)
Excerpt: as §1

Row | EC50 [2] | EC50 [4] | SMILES | Ratio treated C20 / control C20, Prazosin [1] | Emax [2] | Ratio treated C20 / control C20, Yohimbine [3] | Emax [4] | ED (20 mmHg) [5]
1 | 1000 nM | 0.2 µM | Clc1cccc2c1CC1(CC2)CNC=N1 (centres unmarked) [Example 1, Spiro[(1,3-diazacyciopent-1-ene)-5:2'-(8'-chloro-1', 2',3',4'-tetrahydronaphthalene)]fumarate] | 1.9 | 94% | 6.0 | 95% | 0.2 µg/kg
2 | 2000 nM | 7 µM | Clc1cccc2c1CC1(CC2)CNC=N1 (single isomer, unassigned) [Example 6, Spiro[(1,3-diazacyclopent-1-ene)-5:2'-(8'-chloro-1',2',3', 4'-tetrahydronaphthalene)]L-(+)-tartrate, αisomer] | 1.7 | 91% | 4.0 | 96% | 0.1 µg/kg
